One assay concerns Ba/F3 P210 T315I. Briefly: Growth inhibition, viable cells by trypan blue dye exclusion. The assay is classed as cell-based, murine. The settings on record: Mus musculus, BaF3, concentration reducing number of viable cells by 50%, read-out: MEAN IC50 ± S.D.
The next assay relates to wild-type BCR-ABL. Briefly: BCR-ABL protein degradation, anti-ABL western blot in Ba/F3 cells. The settings on record: 24 hours.
Another assay relates to Ba/F3 P210 WT. Nature of the assay: Growth inhibition, viable cells by trypan blue dye exclusion. The assay is classed as cell-based, murine. As to conditions: Mus musculus, BaF3, concentration reducing number of viable cells by 50%, read-out: MEAN IC50 ± S.D.
In another assay the test system is T315I BCR-ABL. Briefly: BCR-ABL protein degradation, anti-ABL western blot in Ba/F3 cells. As to conditions: 24 hours. For orientation: In western blotting, separated proteins are transferred to a membrane and probed.
The subject of the next assay is E255K BCR-ABL. Described as above. The settings on record: 24 hours.
A further assay has as its system Ba/F3 P210 E255K. Nature of the assay: Growth inhibition, viable cells by trypan blue dye exclusion. The assay is classed as cell-based, murine. As to conditions: Mus musculus, BaF3, concentration reducing number of viable cells by 50%, read-out: MEAN IC50 ± S.D.
The subject of assay [1] is Ba/F3 + IL-3 (BCR-ABL-negative parental cells). Described as above. As to conditions: Mus musculus, BaF3, concentration reducing number of viable cells by 50%, read-out: MEAN IC50 ± S.D. Format: cell-based, murine.
The subject of a further assay is v-Src versus c-Src. As to conditions: cited from earlier work.
Assay [2] concerns E255K BCR-ABL-expressing Ba/F3 cells. Briefly: CRKL phosphorylation, western blot and densitometry. The settings on record: 24 hours. The assay is classed as cell-based, murine.
For assay [3], the system named is T315I BCR-ABL-expressing Ba/F3 cells. The assay is described as above. The assay is classed as cell-based, murine. The settings on record: 24 hours.
Assay [4] concerns wild-type BCR-ABL-expressing Ba/F3 cells. The description is as above. Format: cell-based, murine. As to conditions: 24 hours.

The source of these data is US8586291B2 (priority 2001, dated 2013).

Molecules are shown by their SMILES.

The IC50 is the point on the concentration scale where inhibition reaches its midpoint. As for `COC1=C2C[C@@H](C)C[C@H](OC)[C@H](O)[C@@H](C)/C=C(\C)[C@H](OC(N)=O)[C@@H](OC)/C=C\C=C(/C)C(=O)NC(=CC1=O)C2=O` [GA, Geldanamycin], the half-maximal inhibitory concentration (IC50) in the assay with Ba/F3 P210 T315I turned out to be 1.8 ± 2.1 µM; in the assay with Ba/F3 P210 WT, 4.9 ± 1.6 µM; in the assay on Ba/F3 P210 E255K, 2.6 ± 2.4 µM; in [1], 27.3 ± 14.1 µM. Besides, the “concentration at which BCR-ABL protein levels decrease” value in the assay with wild-type BCR-ABL was 1.0 µM; in the assay with T315I BCR-ABL, 0.5 µM; with E255K BCR-ABL, 0.5 µM.

`Cc1ccc(-c2nn(C(C)(C)C)c3ncnc(N)c23)cc1` [PP1]: in the assay with v-Src versus c-Src, the “fold resistance of v-Src versus c-Src to kinase inhibition” value was “approximately 50 fold”.

Consider `C=CCNC1=C2C[C@@H](C)C[C@H](OC)[C@H](O)[C@@H](C)/C=C(\C)[C@H](OC(N)=O)[C@@H](OC)/C=C\C=C(/C)C(=O)NC(=CC1=O)C2=O` [17-AAG, 17-allylaminogeldanamycin], for which the IC50 in the assay with Ba/F3 P210 T315I came out at 2.3 ± 0.4 µM; with Ba/F3 P210 WT, 5.2 ± 2.4 µM; with Ba/F3 P210 E255K, 1 ± 0.2 µM; in [1], 12.4 ± 0.3 µM. For the same compound, the “concentration at which BCR-ABL protein levels decrease” value was 0.5 to 1.0 µM in the assay on wild-type BCR-ABL, 0.5 µM in the assay with T315I BCR-ABL and 0.5 µM in the assay with E255K BCR-ABL. Besides, the “concentration at which CRKL phosphorylation was significantly inhibited” value in [2] and in [3] was 0.5 µM each time. For the same compound, the “concentration at which virtually no BCR-ABL protein was detectable” value in the assay on T315I BCR-ABL and with E255K BCR-ABL was 1.0 µM in each case. Besides, the “concentration at which significant changes in CRKL phosphorylation were observed” value in [4] worked out at 5.0 µM.
